Assay results: BindingDB's records for patent US20250074910 (Hitgen, 2025)

Molecular target: T1, Menin (Homo sapiens, UniProt O00255)
T1 sequence (O00255 whole entry): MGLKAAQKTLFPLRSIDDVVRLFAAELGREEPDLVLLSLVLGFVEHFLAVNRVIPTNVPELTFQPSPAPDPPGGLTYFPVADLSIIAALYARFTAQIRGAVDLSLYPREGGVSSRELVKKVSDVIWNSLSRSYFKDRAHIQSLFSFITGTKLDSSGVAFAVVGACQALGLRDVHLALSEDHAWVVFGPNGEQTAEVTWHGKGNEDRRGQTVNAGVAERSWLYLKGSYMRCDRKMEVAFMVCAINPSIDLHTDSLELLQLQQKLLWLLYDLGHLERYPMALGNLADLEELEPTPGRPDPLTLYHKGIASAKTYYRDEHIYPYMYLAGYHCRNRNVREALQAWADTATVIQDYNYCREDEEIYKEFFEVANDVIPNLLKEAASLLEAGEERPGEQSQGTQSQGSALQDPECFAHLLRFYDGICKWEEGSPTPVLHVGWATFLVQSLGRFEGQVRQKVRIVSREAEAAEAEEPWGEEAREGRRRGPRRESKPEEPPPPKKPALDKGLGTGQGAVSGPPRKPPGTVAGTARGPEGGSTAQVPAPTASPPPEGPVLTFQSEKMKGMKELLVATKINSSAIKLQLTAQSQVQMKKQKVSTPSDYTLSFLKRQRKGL
Experiment: Menin-MLL Interaction Inhibitory Activity Assay
Protocol: The inhibition of Menin/MLL-4-43 peptide interaction by small molecule inhibitors was quantitatively detected by fluorescence polarization competition assay. The experiment was performed in a 384-well plate (Corning, Cat #3575) using a reaction buffer consisting of 50 mM Tris, pH 7.5, 50 mM NaCl, and 1 mM DTT. A 40 μL reaction system included 10 μL of 8 nM Menin recombinant protein and 10 μL of the test compound at different concentrations. The compound was pre-incubated with Menin protein for 15 min, and then 20 μL of 10 nM FITC-MLL4-43-peptide was added. After incubation on a shaker at 25° C. for 60 min, the fluorescence polarization signal (FP 485 520 520) was read using BMG PHERAStar detection. The experimental data was analyzed and processed by GraphPad Prism 6 software to obtain the IC50 value.

Row | IC50 | SMILES
1 | 36.3 nM | CCN(C(=O)c1cc(F)ccc1Oc1cncnc1N1CC2(CCN(C[C@H]3CC[C@@]4(CCC(=O)N4)CC3)CC2)C1)C(C)C [US20250074910, Example 1]
2 | 8.3 nM | CC(C)N(C(=O)c1cc(F)ccc1Oc1nncnc1N1CC2(CCN(C[C@H]3CC[C@]4(CC3)CC(CO)(CO)C(=O)N4)CC2)C1)C(C)C [US20250074910, Example 63]
